Assay results published in ChEMBL document CHEMBL5154644, “Design, Synthesis, and Structure-Activity Relationship Optimization of Pyrazolopyrimidine Amide Inhibitors of Phosphoinositide 3-Kinase γ (PI3Kγ)” (J Med Chem, 2022).

Target: T1, Cytochrome P450 2B6 (Homo sapiens, UniProt P20813)
T1 sequence (P20813 whole entry): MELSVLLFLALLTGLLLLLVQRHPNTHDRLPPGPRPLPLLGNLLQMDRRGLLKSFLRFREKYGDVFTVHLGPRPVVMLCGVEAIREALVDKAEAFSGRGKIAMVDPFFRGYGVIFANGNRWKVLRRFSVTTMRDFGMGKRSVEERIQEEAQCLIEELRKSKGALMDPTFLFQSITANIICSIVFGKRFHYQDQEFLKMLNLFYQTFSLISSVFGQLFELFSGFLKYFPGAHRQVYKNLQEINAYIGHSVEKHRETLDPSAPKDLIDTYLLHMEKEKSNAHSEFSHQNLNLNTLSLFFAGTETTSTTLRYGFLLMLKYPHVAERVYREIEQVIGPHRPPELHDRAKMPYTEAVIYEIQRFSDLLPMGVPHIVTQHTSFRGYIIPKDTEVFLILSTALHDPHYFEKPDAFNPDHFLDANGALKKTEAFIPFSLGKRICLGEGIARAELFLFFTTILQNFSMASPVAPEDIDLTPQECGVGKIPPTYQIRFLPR
Assay: Time dependent inhibition of CYP2B6 in human liver microsomes at 40 uM measured after 5 to 20 mins in presence of NADPH by LC/MS/MS analysis
Type: ADME, Microsome

- IC50: > 20 µM
Compound: C[C@@H](C1CC1)N1Cc2cc(-c3ccn4nc(N)c(C(=O)N[C@H]5CC[C@@](C)(O)CC5)c4n3)cc(OC(F)F)c2C1=O
